One may read the pIC50 as −log10 of the IC50, conventionally taken in molar units.

In series [1] the test system is multi-drug resistant MCF-7 ADR^R breast cancer cells. The series can be described thus: TCA-precipitable 2-[3H]methylthymidine incorporation. In kind it is cell-based. As to conditions: thymidine incorporation. Here is the method:
MCF-7 cells were continuously exposed to increasing concentrations of adriamycin resulting in multidrug-resistance (mdr) as a stable genetic trait (Batist et al., J. Biol. Chem. (1986) 261:[…]). The mdr cells are referred to as ADR^R cells. MCF-7 WT (wild-type) and ADR^R cells were plated at 1000 cells/well (9.6 cm^2) in RPMI 1640 supplemented with 10% fetal bovine serum (day 1). Plant PI (0.5-150 μM) in the form of multilamellar vesicles (Jett and Alving, in Methods in Enzymology 141B (eds. Conn. P.M. and Means A.R.) 459-466, Academic Press, Orlando, FL 1987) or adriamycin (1-2000 nM) was added to the cultures on day 2. At day 8-10, the fluid was removed and clones were fixed, stained and counted. Colonies were scored positive if >40 cells/clone Adriamycin (10-500 nM) or plant PI (20-200 μM) was added at the time of cell plating. At day 8-10, the colony forming units of granulocytes and monocytes (CFV-GM) were counted. The results were the average of triplicate experiments.
In order to further assess cell viability between wild-type (MCF-7 wild-type cell line) (WT) and multi-drug resistant MCF-7 ADR^R (MDR^R) breast cancer cells, tests involving TCA-precipitable 2-[^3 H]methylthymidine incorporation were employed. MCF-7 WT and ADR^R cells were plated (Day 1) at 1500 cells/well in 96-well cluster plates. […] Results were expressed as the geometric mean of triplicate cultures.
On the technique in general: Dividing cells build labelled thymidine or BrdU into new DNA.

The subject of series [2] is MCF-7 wild-type (WT) breast cancer cells. The description is as above. Type of series: cell-based. To be noted: thymidine incorporation. Here is the method: In order to further assess cell viability between wild-type (MCF-7 wild-type cell line) (WT) and multi-drug resistant MCF-7 ADR^R (MDR^R) breast cancer cells, tests involving TCA-precipitable 2-[^3 H]methylthymidine incorporation were employed. MCF-7 WT and ADR^R cells were plated (Day 1) at 1500 cells/well in 96-well cluster plates. On Day 2, phospholipid preparations were added to triplicate cultures. On Day 7, 2-[^3 H]methylthymidine was added and the cells harvested as described (Jett et al., Cancer Res. (1985) 45:4810-4815), using 5% TCA as the wash buffer. Results were expressed as the geometric mean of triplicate cultures.

For a further series, the system named is N4TG1 Neuroblastoma. Nature of the series: LD50 to tumor cells of various preparations of PI. In kind it is cell-based. To be noted: Mus musculus. From the text:
(§1) FIGS. 5 through 7 a show comparisons of the effects of liposomes having varous phospholipids containing defined fatty acids on [^3 H-methyl]-thymidine uptake. Thymidine uptake is a method of assessing cell viability of cultured cells, and decreased thymidine uptake occurs as a result of cytotoxicity caused by contact with toxic substances. , MRC-5 normal embryonic lung fibroblasts; , W1-38SV/40 transformed embryonic human lung fibroblasts; .quadrature..quadrature., SK-N-MC human glioblastoma cells and , N4TG1 mouse neuroblastoma cells.
(§2) [methyl-^3 H]Thymidine (New England Nuclear) incorporation was carried out using 96-well plates (Costar). Thymidine incorporation was used as an assay for cell viability, since in the previous studies described in the Biochem. Biophys. Res. Commun. (1983) article, other methods of assessing cell viability, including microscopic evaluation in the presence of trypan blue, gave identical results. Fifty μl of cell suspension (4×10^5 cells/ml) were added to duplicate wells. Approximately 18 hours later 25 μl of the PI-containing liposomes were added to give a final concentration of phospholipid of 200 μM (approximately, 14 nmol/2-3×10^4 cells). At various intervals after PI addition [^3 H]thymidine, 1 μCi/well was added and incubated with the cells for 3 hours. Cells were collected on glass fiber filter mats by a mechanical cell harvester (Skatron, Inc.) using a combination of scraping and fluid turbulence (saline). Filters were dried and the material was solubilized by incubation overnight with NCS tissue solubilizer and counted in the presence of Spectrafluor (Amersham).
(§3) Res Commun. article cited above. The LD50 values for some of the cell lines reported in the Biochem. Biophys. Res. Commun. article are compared with LD50 values obtained using Avanti plant PI or synthetic ([14 C]linoleoyl)PI.

In series [3] the test system is WI-38/SV-40. The series can be described thus: LD50 to tumor cells of various preparations of PI. Type of series: cell-based. As to conditions: Homo sapiens.
From the text: as §1, §2, §3

Series [4] deals with SK-N-MC. The series can be described thus: LD50 to tumor cells of various preparations of PI. Type of series: cell-based. To be noted: Homo sapiens.
From the text: as §1, §2, §3

The test system of series [5] is N4TG1 neuroblastoma cells. Nature of the series: Thymidine uptake (cell viability) by N4TG1 neuroblastoma cells incubated with liposomes. As to conditions: FIG. 1. In kind it is cell-based, mouse. The protocol:
Plant PI(S) is from the Sigma Chemical Company and plant PI(A) is from Avanti Polar Lipids, Inc. and ([^14 C]linoleoyl)PI is the synthetic PI.
FIGS. 3a and 3b show the effect of increasing the molar fraction of synthetic PI or animal PI in liposomes on (a) thymidine uptake (FIG. 3a) and myo-inositol uptake (FIG. 3b) by N4TG1 neuroblastoma cells, .circle. 100 μm PI, 200 μm PI, 300 μm PI. Cells were incubated with liposomes made up of the various combinations indicated (mol %) of ([^14 C]linoleoyl)PI and animal PI.
FIGS. 9a, b, c, and d show the effect of inhibitors on PI toxicity to tumor cells.
(§4) Lipids were dried and resuspended exactly as described previously in the Biochem. Biophys. Res. Commun. article. In the use of ([^14 C]linoleoyl)PI, ([^14 C]oleoyl)PI, or ([^14 C]arachidonoyl)PI the phospholipids were used in a 2:1 molar combination with cholesterol. Cholesterol was included in the liposomes in order to minimize the net transfer of cholesterol into or out of the cells. ([^3 H]myo-Inositol)PI was used as a tracer (1%) with bovine liver PI as the bulk phospholipid carrier for forming liposomes. [^3 H]Linoleic acid was used as a tracer (4%) in liposomes containing linoleic acid:PI (yeast or animal): cholesterol, 2:1. It was shown that it is not necessary to have cholesterol present to observe the cytotoxicity.
The N4TG1 mouse neuroblastoma cell line was obtained from Dr. Peter Chiang (Walter Reed Army Institute of Research) and cultured using Dulbecco's minimal essential medium (MEM: Grand Island Biological Co.) containing 10% fetal bovine serum. Cells were routinely started from frozen cultures every 6 weeks in order to assure that the cells used were from low passage cultures.
as §2
In FIGS. 1 and 2 the curves were quite reproducible and representative experiments are shown. Because of fluctuations (<5%) in control values, the data were "normalized" by comparison with daily controls and expressed as "percentage of control in absence of PI." Typical values for uptake of [^3 H]thymidine by controls are shown in the inserts in FIGS. 1 and 2.

Series [6] is described as follows: Sedimentation of liposomes by low speed / differential centrifugation. Type of series: physicochemical. To be noted: label used as liposome marker. The source says:
In both FIGS. 4a and 4b, pellets 1, 2, and 3 were obtained by differential centrifugation.

The test system of series [7] is N4TG1 neuroblastoma cells. The series can be described thus: Fate of liposomal PI after incubation with N4TG1 neuroblastoma cells. Type of series: in vitro ADME, mouse.
From the text: as §4, with “It was shown that it is not necessary to have cholesterol present to observe the cytotoxicity.” left out
In order to extract lipids, methanol and chloroform were added to cell homogenates to obtain a single phase of CHCl3 :CH3 OH:H2 O (1:2:1 8, v/v) containing 0.1M HCl, according to Bligh and Dyer in Can. […] The lipid compositions of the cell extracts were determined by thin layer chromatography on silica gel precoated sheets (E. M. Reagents; E. Merck, FRG) using the following solvent systems: (a) chloroform:methanol: acetic acid:water, 25:15:4:2 (v/v) (used for phospholipid separation): (b) 1-propanol:4.3M ammonia containing 10 mM EDTA, 65:35 (v/v) (used for PIP and PIP2 separations); and (c) chloroform:acetone, 1:1 (v/v) (used for DG and fatty acid separations). […]

Series [8] has as its system HT-144. Nature of the series: LD50 to tumor cells of various preparations of PI. In kind it is cell-based. As to conditions: Homo sapiens. The protocol:
as §2, §3

In another series the test system is MRC-5. Nature of the series: Liposomal uptake by normal and tumor cells. As to conditions: normal cells MRC-5. In kind it is cell-based. Here is the method:
(§5) Thymidine uptake is a method of assessing cell viability of cultured cells, and decreased thymidine uptake occurs as a result of cytotoxicity caused by contact with toxic substances. , MRC-5 normal embryonic lung fibroblasts; , W1-38SV/40 transformed embryonic human lung fibroblasts; .quadrature..quadrature., SK-N-MC human glioblastoma cells and , N4TG1 mouse neuroblastoma cells.
(§6) Cells were treated with liposomes containing synthetic preparations of PI (left frames) or PC (right frames) containing palmitic acid in the sn-1 position and either [^14 C]linoleic acid in the sn-2 position (FIGS. 5 and 5a) or [^14 C]arachidonic acid in the sn-2 position (FIGS. 6 and 6a) or [^14 C]oleic acid in the sn-2 position (FIGS. 7 and 7a). The liposomes were comprised of the indicated phospholipids (PI or PC) and cholesterol in a molar ratio of 2:1.
(§7) The data in Table 5 was obtained concomitantly with the toxicity studies in FIGS. 5-7a.

The subject of the next series is N4TG1. Nature of the series: Liposomal uptake by normal and tumor cells. In kind it is cell-based, mouse. As to conditions: tumor cells N4TG1. Here is the method: as §5, §6, §7
For series [9], the system named is WI-38/SV-40. Nature of the series: Liposomal uptake by normal and tumor cells. Type of series: cell-based, human. The protocol:
as §5, §6, §7

Series [10] relates to SK-N-MC. The series can be described thus: Liposomal uptake by normal and tumor cells. In kind it is cell-based, human. To be noted: tumor cells SK-N-MC. Here is the method:
as §5, §6, §7

The subject of series [11] is HT-144. The series can be described thus: Liposomal uptake by normal and tumor cells. Type of series: cell-based, human. To be noted: tumor cells HT-144. Here is the method:
as §6, §7

A further series deals with Human marrow CFV-GM. The series can be described thus: Colony forming units of granulocytes and monocytes. In kind it is cell-based. As to conditions: Monocyte, 192 h.
Series [12] deals with tumor cells from cultured cell lines. As to conditions: earlier articles; cited from earlier work.

Molecules are shown by their SMILES. pIC50: −log10 of the molar value.

For `CCCCC/C=C\C/C=C\CCCCCCCC(=O)O[C@H](COC(=O)CCCCCCCCCCCCCCC)COP(=O)([O-])OCC[N+](C)(C)C`, the toxicity entry in [1] and in series [2] was “not as toxic as synthetic phosphatidylinositol containing the identical fatty acids” each time.
For the compound `CCCCC/C=C\C/C=C\CCCCCCC[14C](=O)O[C@H](COC(=O)CCCCCCCCCCCCCCC)COP(=O)(O)O[C@@H]1[C@H](O)[C@H](O)[C@@H](O)[C@H](O)[C@H]1O` [([^14 C]linoleoyl)PI, sn-3-phosphatidyl(1-palmitoyl-2-[1'-^14 C]linoleoyl)myo-inositol], the pIC50 is 4.60 in the series on N4TG1 Neuroblastoma (3 hours); 4.60 with N4TG1 Neuroblastoma (8 hours); 4.19 in the series with WI-38/SV-40 [3] (3 hours); 4.46 in the series on WI-38/SV-40 [3] (8 hours); 4.41 with SK-N-MC [4] (3 hours); 4.42 with SK-N-MC [4] (8 hours). The pIC50 in the series with HT-144 [8] (3 hours) and in the series with HT-144 [8] (8 hours) was 4.60 throughout. In series [5], the “effectiveness vs plant PI from Sigma” value is “slightly more effective”. In [6], the “liposomes sedimented by low speed centrifugation” value was 8%. Moreover, the “liposomes which did not sediment” value in series [6] stood at 92%. Further, in series [7], the “DG (diglycerides)” value turned out to be 0.8. In addition, the Liposomal uptake in the series with MRC-5 is 0.09 nMoles of phospholipid/1 × 10^5 cells; with N4TG1, 0.39 nMoles of phospholipid/1 × 10^5 cells; in the series with WI-38/SV-40 [9], 0.39 nMoles of phospholipid/1 × 10^5 cells; with SK-N-MC [10], 0.45 nMoles of phospholipid/1 × 10^5 cells; in the series on HT-144 [11] it was 0.39 nMoles of phospholipid/1 × 10^5 cells.
`COc1cccc2c1C(=O)c1c(O)c3c(c(O)c1C2=O)C[C@@](O)(C(=O)CO)C[C@@H]3O[C@H]1C[C@H](N)[C@H](O)[C@H](C)O1` [adriamycin]: in the series with Human marrow CFV-GM, the pIC50 is 7.10.
Regarding `CCCCCCCC/C=C\CCCCCCCC(=O)O[C@H]1CC[C@@]2(C)C(=CC[C@H]3[C@@H]4CC[C@H]([C@H](C)CCCC(C)C)[C@@]4(C)CC[C@@H]32)C1` [cholesteryl oleate], the “anti-tumor effect / selective killing of tumor cells” value in [12] is “reduced the anti-tumor effect”.
With `CCCCCCCCCCCCCCCCCC(=O)OCC(COP(=O)([O-])OCC[N+](C)(C)C)OC(=O)CCCCCCCCCCCCCCCCC` (centres unmarked) [distearoyl phosphatidyl choline, reference compound], the toxicity result in series [1] and in [2] was “no toxicity” each time.

Source of the values: patent US4999344A, “Phosphatidyl treatment of rapidly proliferating cells” (priority 1988, dated 1991).
